≈ marks a conversion by molar mass, not a printed value.
Columns and labels:
[1] = system: Staphylococcus aureus; assay: microbe, parasite or virus in culture; format: functional; conditions: 209P, 24 h
Description: Antibacterial activity against Staphylococcus aureus 209P after 24 hrs by twofold dilution assay

[2] = system: Proteus mirabilis; assay: microbe, parasite or virus in culture; format: functional; conditions: GN 2425, 24 h
Description: Antibacterial activity against Proteus mirabilis GN 2425 after 24 hrs by twofold dilution assay

[3] = Drug level in Wistar rat serum at 50 mg/kg, po measured at 4 hrs
[4] = Drug level in Wistar rat serum at 50 mg/kg, po measured at 2 hrs
[5] = Drug level in Wistar rat serum at 50 mg/kg, po measured at 1 hr
[6] = system: Pseudomonas aeruginosa; assay: microbe, parasite or virus in culture; format: functional; conditions: Pseudomonas aeruginosa, 104, 24 h
Description: Antibacterial activity against Pseudomonas aeruginosa 104 after 24 hrs by twofold dilution assay

[7] = system: Escherichia coli; assay: Antibacterial activity against Escherichia coli NIHJ after 24 hrs by twofold dilution assay; format: functional
[8] = Drug recovery in Wistar rat urine at 50 mg/kg, po measured over 24 hrs
[9] = Drug level in Wistar rat serum at 50 mg/kg, po measured at 6 hrs; format: ADME, organism-based; set-up: dose 50 mg/kg, route oral; conditions: read-out: Drug uptake
[10] = system: Klebsiella pneumoniae; assay: microbe, parasite or virus in culture; format: functional; conditions: PCI-602, 24 h
Description: Antibacterial activity against Klebsiella pneumoniae PCI-602 after 24 hrs by twofold dilution assay

[11] = Drug level in Wistar rat serum at 50 mg/kg, po measured at 0.5 hr
[12] = system: Escherichia coli; assay: Antibacterial activity against Escherichia coli 0111 infected in ICR mouse administered orally 0.5 hr and 6 hrs post infection measured 1 week post challenge; format: functional; conditions: Escherichia coli, 0111, po
[13] = system: Proteus mirabilis; assay: Antibacterial activity against Proteus mirabilis GN2425 infected in ICR mouse administered orally 0.5 hr and 6 hrs post infection measured 1 week post challenge; format: functional; conditions: GN2425, po

Row | MIC [1] [µg/mL] | MIC [2] [µg/mL] | concentration at 4 h [3] [ng/mL] | concentration at 2 h [4] [ng/mL] | concentration at 1 h [5] [ng/mL] | MIC [6] [µg/mL] | MIC [7] [µg/mL] | dose excreted at 24 h [8] [%] | concentration at 6 h [9] [ng/mL] | MIC [10] [µg/mL] | concentration at 0.5 h [11] [ng/mL] | SMILES | ED50 [12] [mg/kg] | ED50 [13] [mg/kg]
1 | 6.25 (≈ 23.7 µM) | 0.39 (≈ 1.48 µM) | 19500 | 22300 | 27800 | 12.5 (≈ 47.5 µM) | 0.39 (≈ 1.48 µM) | 7.5 | 1500 | 0.39 (≈ 1.48 µM) | 11600 | COn1cc(C(=O)O)c(=O)c2cc3c(cc21)OCO3 [MILOXACIN] | 7.2 | 30
2 | 25 (≈ 85.8 µM) | 50 (≈ 172 µM) |  |  |  | 200 (≈ 687 µM) | 6.25 (≈ 21.5 µM) |  |  | 3.13 (≈ 10.7 µM) |  | CC(C)On1cc(C(=O)O)c(=O)c2cc3c(cc21)OCO3 |  | 
3 | 12.5 (≈ 43.2 µM) | 50 (≈ 173 µM) |  |  |  | 200 (≈ 691 µM) | 6.25 (≈ 21.6 µM) |  |  | 3.13 (≈ 10.8 µM) |  | C=CCOn1cc(C(=O)O)c(=O)c2cc3c(cc21)OCO3 |  | 
4 | 6.25 (≈ 23.9 µM) | 0.39 (≈ 1.49 µM) | 1700 | 4000 | 4700 | 12.5 (≈ 47.9 µM) | 0.78 (≈ 2.99 µM) | 11 |  | 0.2 (≈ 0.766 µM) | 6200 | COn1cc(C(=O)O)c(=O)c2cc3c(cc21)CCO3 |  | 
5 | 50 (≈ 165 µM) | 100 (≈ 330 µM) |  |  |  | > 200 | 50 (≈ 165 µM) |  |  | > 200 |  | O=C(O)c1cn(OCC2CC2)c2cc3c(cc2c1=O)OCO3 |  | 
6 | 100 (≈ 341 µM) | 100 (≈ 341 µM) |  |  |  | 100 (≈ 341 µM) | 100 (≈ 341 µM) |  |  | > 200 |  | O=C(O)c1cn(OCCO)c2cc3c(cc2c1=O)OCO3 |  | 
7 | 50 (≈ 172 µM) | 200 (≈ 687 µM) |  |  |  | 100 (≈ 343 µM) | 100 (≈ 343 µM) |  |  | > 200 |  | CCCOn1cc(C(=O)O)c(=O)c2cc3c(cc21)OCO3 |  | 
8 | 50 (≈ 191 µM) | > 200 |  |  |  | > 200 | 100 (≈ 383 µM) |  |  | 50 (≈ 191 µM) |  | COn1cc(C(=O)O)c(=O)c2c3c(ccc21)OCC3 |  | 
9 | 25 (≈ 90.2 µM) | 50 (≈ 180 µM) |  |  |  | 100 (≈ 361 µM) | 3.13 (≈ 11.3 µM) |  |  | 1.56 (≈ 5.63 µM) |  | CCOn1cc(C(=O)O)c(=O)c2cc3c(cc21)OCO3 |  | 
10 | 25 (≈ 90.2 µM) | 200 (≈ 721 µM) |  |  |  | > 200 | 12.5 (≈ 45.1 µM) |  |  | 12.5 (≈ 45.1 µM) |  | COn1cc(C(=O)O)c(=O)c2c3c(ccc21)OCOC3 |  | 

The next lines start with the molecule.

Row | SMILES | MIC [1] [µg/mL] | MIC [2] [µg/mL] | concentration at 4 h [3] [ng/mL] | concentration at 2 h [4] [ng/mL] | concentration at 1 h [5] [ng/mL] | MIC [6] [µg/mL] | MIC [7] [µg/mL] | dose excreted at 24 h [8] [%] | concentration at 6 h [9] [ng/mL] | MIC [10] [µg/mL] | concentration at 0.5 h [11] [ng/mL] | ED50 [12] [mg/kg] | ED50 [13] [mg/kg]
11 | CCn1cc(C(=O)O)c(=O)c2c3sc(=O)n(C)c3ccc21 [TIOXACIN] | 3.13 (≈ 10.3 µM) | 0.39 (≈ 1.28 µM) | 450 | 320 | 360 | > 200 | 0.1 (≈ 0.329 µM) | 0.3 | 360 | 0.2 (≈ 0.657 µM) | 300 |  | 
12 | C=CCOn1cc(C(=O)O)c(=O)c2c3sc(=O)n(CC=C)c3ccc21 | 50 (≈ 140 µM) | > 200 |  |  |  | > 200 | 100 (≈ 279 µM) |  |  | 200 (≈ 558 µM) |  |  | 
13 | CCn1cc(C(=O)O)c(=O)c2ccc3c(c21)CCC3 | 3.13 (≈ 12.2 µM) | 6.25 (≈ 24.3 µM) |  |  |  | 50 (≈ 194 µM) | 1.56 (≈ 6.06 µM) |  |  | 0.39 (≈ 1.52 µM) |  |  | 
14 | COn1cc(C(=O)O)c(=O)c2ccc3c(c21)CCC3 | 25 (≈ 96.4 µM) | 50 (≈ 193 µM) |  |  |  | > 200 | 12.5 (≈ 48.2 µM) |  |  | 3.13 (≈ 12.1 µM) |  |  | 
15 | CCn1cc(C(=O)O)c(=O)c2cc3c(cc21)OCO3 [OXOLINIC ACID] | 3.13 (≈ 12 µM) | 0.39 (≈ 1.49 µM) | 4800 | 4700 | 1500 | 6.25 (≈ 23.9 µM) | 0.39 (≈ 1.49 µM) | 2.4 | 2700 | 0.78 (≈ 2.99 µM) | 700 | 20 | 48
16 | CCn1cc(C(=O)O)c(=O)c2c3c(ccc21)OCOC3 | 3.13 (≈ 11.4 µM) | 12.5 (≈ 45.4 µM) |  |  |  | > 200 | 6.25 (≈ 22.7 µM) |  |  |  |  |  | 
17 | COn1cc(C(=O)O)c(=O)c2c3sc(=O)n(C)c3ccc21 | 6.25 (≈ 20.4 µM) | 0.39 (≈ 1.27 µM) | 1900 | 3700 | 4500 | 12.5 (≈ 40.8 µM) | 0.2 (≈ 0.653 µM) | 1.8 |  | 0.2 (≈ 0.653 µM) | 2900 |  | 
18 | O=C(O)c1cn(OCc2ccccc2)c2ccc3c(sc(=O)n3Cc3ccccc3)c2c1=O | > 1.56 | > 200 |  |  |  | > 200 | > 200 |  |  | > 200 |  |  | 
19 | C=CCOn1cc(C(=O)O)c(=O)c2c3c(ccc21)OCOC3 | > 50 | > 200 |  |  |  | > 200 | > 200 |  |  | > 200 |  |  | 

Source: ChEMBL document CHEMBL3244332, “Studies on quinoline derivatives and related compounds. 5. Synthesis and antimicrobial activity of novel 1-alkoxy-1,4-dihydro-4-oxo-3-quinolinecarboxylic acids” (J Med Chem, 1977)
